Where a name gives a salt, the structure may show the parent alone. Read-outs that look alike come from different tables or passages of the source.
Tested on: spinal nerve roots of the cauda equina
Assay: Compound nerve action potentials (CAPs) recorded in vitro from isolated spinal nerve roots
Parameters: species or system rats
Conditions: for IC50: K+ concentration read from the dose-response curves, read-out: 50% reduction of the CAP
Procedure: Using the method as described in J. Physiol 275, (1978), pages 177-189, experiments were carried out in vitro on spinal nerve roots of the cauda equina dissected from killed rats. Compound nerve action potentials (CAPs) were recorded from the nerves which were placed in a bath incorporating stimulating and recording electrodes and analyzed with MacLab Scope. Kreb's solutions containing various potassium ion concentrations were applied for 5 minutes to an isolated central portion of the nerve between the two sets of electrodes. With all potassium salts tested, the amplitude and area of the CAPs were reduced in a dose-dependent manner by test solutions containing 8 mM K⁺ or more. "Mean INT" in the table is the mean integrated CAP, expressed as a percentage of the control response, i.e. the response obtained with Krebs' solution containing 4mM K⁺. There were no differences in the results for CAP peak amplitudes and integrated CAPs.
Wilcoxons' Sum of Ranks test was used to compare the % of control I-CAP values obtained after 5 min exposure to the different K⁺ salts at equivalent concentrations.

[1] = [K+] 8 mM, applied for 5 minutes, mean integrated CAP as percentage of control response (Krebs' solution containing 4mM K+)
[2] = [K+] 16 mM, applied for 5 minutes, mean integrated CAP as percentage of control response (Krebs' solution containing 4mM K+)
[3] = [K+] 24 mM, applied for 5 minutes, mean integrated CAP as percentage of control response (Krebs' solution containing 4mM K+)
[4] = [K+] 32 mM, applied for 5 minutes, mean integrated CAP as percentage of control response (Krebs' solution containing 4mM K+)
[5] = [K+] 64 mM, applied for 5 minutes, mean integrated CAP as percentage of control response (Krebs' solution containing 4mM K+)

Molecule | IC50 [mM] | mean INT.(%) [1] [%] | mean INT.(%) [2] [%] | mean INT.(%) [3] [%] | mean INT.(%) [4] [%] | mean INT.(%) [5] [%] | effect on CAP compared with potassium oxalate (16-64 mM K+, p < 0.05) | activity at 8000 µM (Rattus norvegicus, 5 min, [K+] 8 mM, applied for 5 minutes, mean integrated CAP as percentage of control response (Krebs' solution containing 4mM K+), read-out: mean INT.(%)) [%] | activity at 16000 µM (Rattus norvegicus, 5 min, [K+] 16 mM, applied for 5 minutes, mean integrated CAP as percentage of control response (Krebs' solution containing 4mM K+), read-out: mean INT.(%)) [%] | activity at 24000 µM (Rattus norvegicus, 5 min, [K+] 24 mM, applied for 5 minutes, mean integrated CAP as percentage of control response (Krebs' solution containing 4mM K+), read-out: mean INT.(%)) [%] | activity at 32000 µM (Rattus norvegicus, 5 min, [K+] 32 mM, applied for 5 minutes, mean integrated CAP as percentage of control response (Krebs' solution containing 4mM K+), read-out: mean INT.(%)) [%] | activity at 64000 µM (Rattus norvegicus, 5 min, [K+] 64 mM, applied for 5 minutes, mean integrated CAP as percentage of control response (Krebs' solution containing 4mM K+), read-out: mean INT.(%)) [%] | IC50 (Rattus norvegicus) [mM]
[Cl-].[K+] [KCl, potassium chloride] | 17.8 | 98 | 59 | 13 | 1 | 0 |  |  |  |  |  |  | 
O=[N+]([O-])[O-].[K+] [KNO₃, potassium nitrate] | 17.4 | 91 | 54 | 17 | 2 | 0 |  |  |  |  |  |  | 
O=C(O)C(O)C(O)C(=O)O (stereo not shown) [K₂Tartrate, dipotassium tartrate] |  |  |  |  |  |  | significantly greater | 83 | 15 | 2 | 1 | 1 | 11.6
potassium oxalate [K₂Oxalate] | 14.3 | 84 | 42 | 11 | 3 | 1 |  |  |  |  |  |  | 

Source: patent EP0657160A1, “Oral composition for desensitising sensitive teeth” (UNILEVER N.V., priority 1993, dated 1995)
